Experimental data reported in US7557144B1, “Modulation of protein expression using carbocyclic aryl alkenoic acid derivatives” (The Johns Hopkins University, priority 2000, dated 2009).

System: CFTR
Assay: Nasal potential difference in CF patients
Assay type: in vivo, human
From the text: Standard methods for detecting and quantifying electrical potentials from nasal epithelia have been reported. See e.g., Zeitlin, P. L. (2000) in Mol. Therapy 1: 1; Noone, P. G. et al. (2000) in Mol. Therapy 1: 105-114; Caplen, J. J. et al. (1995) Nat. Med. 1: 39-46; Middleton, P. G. (1994) in Eur. Respir. 7: 2050-2056; the disclosures of which are hereby incorporated by reference.
This is consistent with the presence of a functional CFTR in the nasal epithelial cell surface.
FIG. 16D the same individual as in […] 18 days on 4-phenylbutyrate.

O=C(O)CCCc1ccccc1 [4-PBA, 4-phenylbutyric acid]
nasal potential difference response to low chloride/isoproterenol (CF patient (deltaF508 homozygous), 20 gm daily for 7 days): induce chloride transport | nasal potential difference response to low chloride/isoproterenol (same CF patient after 18 days on 4-phenylbutyrate): continues to sustain chloride transport
